This is an account of results in patent publication US11243207B2, “Assessing and treating cancer” (Mayo Foundation for Medical Education and Research, priority 2018, dated 2022).

The subject of one series is HCC cell lines. Nature of the series: Proliferation assay in HCC cell lines. It is filed as cell-based.
The next series relates to HLE HCC mouse model. The experiment in a line: HLE HCC mouse model, combination study. Conditions: 10 mg/kg SSI4, 30 mg/kg sorafenib or both. It is filed as in vivo. The method, then: (§1) Tissues were cut into 4×4×4 mm cubes and surgically implanted under anesthesia with 100 μl Matrigel into 4-6 week old athymic nude female mice. Tumors were measured 1 to 2 times per week using calipers and volumes calculated by […]*(L×W×H). Once tumors reached ˜100 mm3, either placebo or SSI-4 treatment was administered at 180, or 600 mg/kg in custom AIN76 animal chow by Research Diets, Inc. Based upon food consumption, the amount of SSI4 ingested was 20 mg/kg and 50 mg/kg, respectively. For the combination study, mice were administered either 10 mg/kg SSI4, 30 mg/kg sorafenib or both in Nutra-gel diet.

In a further series the test system is HLF cells. The experiment in a line: Combination proliferation assay in HLF cells (Chou and Talalay). It is filed as cell-based. The following applies: in combination with SSI-4.
A further series deals with T1, SCD1 (Mus musculus, UniProt P13516).
T1 construct: Each assay (100 μL) contained 50 μg of microsomes; from tissue; host or cells: mouse liver microsomes
T1 sequence (P13516 1-355): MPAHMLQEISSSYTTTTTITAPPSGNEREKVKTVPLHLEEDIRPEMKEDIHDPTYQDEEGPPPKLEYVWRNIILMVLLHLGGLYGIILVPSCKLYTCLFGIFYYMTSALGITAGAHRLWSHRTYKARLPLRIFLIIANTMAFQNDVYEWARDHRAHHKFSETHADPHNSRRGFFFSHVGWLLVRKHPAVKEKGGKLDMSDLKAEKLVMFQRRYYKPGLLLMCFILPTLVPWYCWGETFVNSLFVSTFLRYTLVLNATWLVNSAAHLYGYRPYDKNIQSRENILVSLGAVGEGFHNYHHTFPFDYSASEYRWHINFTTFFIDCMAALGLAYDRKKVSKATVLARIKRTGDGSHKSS
Nature of the series: Inhibition of oleoyl CoA biosynthesis by mouse liver microsomes (13C18-stearoyl CoA conversion, LC/MS). It is filed as biochemical. As for the experimental part: Pharmacokinetic assessment was performed for SSI-4 administered to fasted male C57BL/6 mice either intravenously (IV) or by oral gavage (PO) in DMSO:PEG400:water (10:70:20) as a clear solution at 5 mg/mL (IV dosing), and 1.3 or 10 mg/mL (respectively for the PO dosing). Serum analysis was performed by LC-MS-MS. PK calculation settings were obtained using the Phoenix WinNonlin 6.3 program, using either the Noncompartmental model 201 (IV bolus input) or Noncompartmental model 200 (extravascular input). Microsomes were isolated from murine liver using Microsome Isolation Kit (BioVision). Each assay (100 μL) contained 50 μg of microsomes, 1 μL of DMSO (for no drug controls) or DMSO-solubilized SCD1 inhibitor, 1 mM reduced NADH, 60 µM coenzyme A, 1 mM ATP, 1 mM DTT, and 5 mM MgCl2 in 100 mM sodium phosphate buffer (pH 7.4). […] To quantify biotransformation of 13C18-stearoyl CoA to 13C18-oleoyl CoA for drug treatments relative to vehicle controls, supernatants were evaluated using the LC/MS2 acyl CoA quantitation method of […] et al. and adapting selected reaction monitoring (SRM) for isotope-labeled acyl CoAs. […] SRM signal areas for isotope-labeled acyl CoAs were measured relative to the heptadecanoyl CoA I.S. using XCalibur software, and percent enzyme inhibition determined by comparing 13C18-oleoyl CoA quantities between treatment and DMSO control assays. […]
(In general: Microsomes from liver hold many membrane-bound enzymes, among them those of drug oxidation.)

Series [1] can be described thus: Single dose pharmacokinetics in fasted male C57BL/6 mice (PO or IV). It is filed as in vivo, mouse. The method, then:
Pharmacokinetic assessment was performed for SSI-4 administered to fasted male C57BL/6 mice either intravenously (IV) or by oral gavage (PO) in DMSO:PEG400:water (10:70:20) as a clear solution at 5 mg/mL (IV dosing), and 1.3 or 10 mg/mL (respectively for the PO dosing). Serum analysis was performed by LC-MS-MS. PK calculation settings were obtained using the Phoenix WinNonlin 6.3 program, using either the Noncompartmental model 201 (IV bolus input) or Noncompartmental model 200 (extravascular input). Microsomes were isolated from murine liver using Microsome Isolation Kit (BioVision). Each assay (100 μL) contained 50 μg of microsomes, 1 μL of DMSO (for no drug controls) or DMSO-solubilized SCD1 inhibitor, 1 mM reduced NADH, 60 µM coenzyme A, 1 mM ATP, 1 mM DTT, and 5 mM MgCl2 in 100 mM sodium phosphate buffer (pH 7.4). […] To quantify biotransformation of 13C18-stearoyl CoA to 13C18-oleoyl CoA for drug treatments relative to vehicle controls, supernatants were evaluated using the LC/MS2 acyl CoA quantitation method of Magnes et al. and adapting selected reaction monitoring (SRM) for isotope-labeled acyl CoAs. […] SRM signal areas for isotope-labeled acyl CoAs were measured relative to the heptadecanoyl CoA I.S. using XCalibur software, and percent enzyme inhibition determined by comparing 13C18-oleoyl CoA quantities between treatment and DMSO control assays. […]

Another series deals with 468 kinases. The experiment in a line: Full matrix kinome scan, binding to 468 kinases. Also on record: species or system human. The method, then: Kinome Scan was conducted by Lead Hunter Discovery Services
The nature of series [2]: Seven day oral toxicity test in Sprague Dawley rats. The format is in vivo, rat. As for the experimental part: Sprague dawley rats (6-8 weeks old M/F) were orally gavaged with SS1-4 at the indicated dose daily, for a duration of seven days. For each dose levels 3 male and 3 females were placed on study. Rats were clinically observed and weighed daily. On day 8 rats were euthanatized and blood was collected by cardiac puncture. Blood chemistry was measured by STAT Veterinary laboratory.

Series [3] deals with Normal human hepatocytes (HH) cells. Nature of the series: Proliferation assay in normal human hepatocytes. The format is cell-based. Conditions: 1 μM.
Series [4] has as its system SSI4 responsive HCC cells. Nature of the series: Lipid assay, unsaturated fatty acids in HCC cells. The format is cell-based. Conditions: 1 μM, 48 hour treatment. As for the experimental part:
Cells were treated for 48 hours with 1 μM SSI4 and lipids from 8 million cells were extracted using the 1957 Folch Lipid Extraction method. Lipids were re-suspended in DMSO and analyzed using Cell Biolab's lipid quantitation assay kit. Borosilicate glass tubes and polypropylene tips and plates were used during the experiments. Samples were read at OD540 nm and were background corrected on a Spectramax M3 spectrophotometer.

The subject of series [5] is SSI-4 responsive HCC cells. Nature of the series: Soft agar colony formation assay. The format is cell-based. As for the experimental part:
Soft agar cultures were prepared by diluting 2× growth medium 1:1 in 1.5% Seaplaque GTG agarose with 1000 cells/plate in 6-well culture dishes. Colonies were stained with Giemsa after 3 weeks and colonies larger than 150 μm were counted using Image J software.

Series [6] deals with cMyc, survivin, cyclin D1, cleaved PARP, BIP. The experiment in a line: Western blot analysis of HCC cell lines. It is filed as cell-based. As for the experimental part:
Cells were collected via scraping and lysed in RIPA extraction buffer containing protease inhibitor cocktail and phosphatase inhibitor. Protein concentrations were measured by bicinchoninic acid (BCA) assay and 30 μg were loaded on 4-12% Bis-Tris/MES gels and then transferred to 0.2 μm Immobilon-P membranes. The membranes were hybridized overnight at 4° C. with the following antibodies: SCD1, PARP, survivin, c-Myc, BIP and β-actin. Secondary species-specific horseradish peroxidase-labeled antibodies were from Jackson Immunoresearch. Detection was performed using Supersignal chemiluminescence kit.

For the next series, the system named is PAX148 HCC PDTX. The experiment in a line: PAX148 HCC PDTX mouse model. The format is in vivo. Conditions: daily SSI-4 20-50 mg/kg oral, high LDHA model. As for the experimental part:
as §1

For a further series, the system named is LIV58 HCC PDTX. The experiment in a line: LIV58 HCC PDTX mouse model. The format is in vivo. The method, then: as §1
FFPE tissues were cut into 5 μm sections, deparaffinized, hydrated, antigen retrieved for 25 minutes at pH 6.0 and blocked for 5 minutes with Dako diluent. Immunostaining was done for 1 hour with either lamin A+C, SCD1, c-Myc, survivin, LDHA, ki67, and BIP primary antibodies. For detection, the Envision Dual Labeled Polymer kit (Dako) was used for 30 minutes for anti-species secondary antibodies and stained with DAB chromagen for 5 minutes. Then, lightly counterstained with Gill I hematoxylin for 30 seconds before dehydration and mounting. Images were obtained at 20× using an Aperio AT2 Scanscope. IHC scoring was done using an algorithm in the Imagescope software based upon signal intensity of weak (1+), moderate (2+) or strong staining (3+) with criteria of at least 20% positivity. H score was calculated based upon signal intensity (0-3) using the formula: [(1+%×1)+(2+%×2)+(3+%×3)].

The subject of series [7] is human (CX-004T2 and HUCCT1) cholangiocarcinoma (CCA) cell lines. Nature of the series: Proliferation of human CCA cell lines. Conditions: 0.1-1 μM, 5 day exposure. The format is cell-based.
The subject of series [8] is mouse (M1-1a and M6-1b) cholangiocarcinoma (CCA) cell lines. The experiment in a line: Proliferation of mouse CCA cell lines. It is filed as cell-based. Conditions: 0.1-1 μM, 5 day exposure.
A further series concerns CX-003 CCA PDTX. The experiment in a line: CX-003 CCA PDTX mouse model (c-Myc negative). The format is in vivo. Conditions: 50 mg/kg oral daily. The method, then:
as §1

Bounds are passed on as bounds.

Experimental for HLF cells: Cell lines were maintained in DMEM media supplemented with sodium pyruvate, HEPES, non-essential amino acids, 3% FBS and antibiotics. Cells were plated at 30,000 cells per well in 12-well plate and treated for 4-5 days at the indicated doses with SSI4 and sorafenib diluted in DMSO at 1:1000. Cell number was determined by using a Coulter Particle Counter.

Take `CNC(=O)c1cc(Oc2ccc(NC(=O)Nc3ccc(Cl)c(C(F)(F)F)c3)cc2)ccn1` [sorafenib, reference compound]: the IC50 with HCC cell lines (all cell lines tested) lay in the range of 1700 to 6400 nM. In the series with HLE HCC mouse model, the “in vivo tumor response over time” value was “escape over time on therapy”.

With `CNC(=O)c1cc(Oc2ccc(NC(=O)Nc3ccc(Cl)c(C(F)(F)F)c3)c(F)c2)ccn1` [Regorafenib], in the series with HLF cells, the “synergy by Chou and Talalay method” value is “exhibited synergy”.

With `CNC(=O)c1ccnc(NC(=O)N2CCC(Oc3ccccc3Cl)CC2)c1` [SSI-4, 2-{[4-(2-Chlorophenoxy)piperidine-1-carbonyl]amino}-N-methylpyridine-4-carboxamide], the IC50 was 1.9 nM against SCD1 and not below 10000 nM with HCC cell lines (other (non-responsive) HCC cell lines). In [1] (male, C57BL/6, mouse, serum, following a single oral dose), this molecule registered a half-life of 3 to 4 h. Moreover, the oral bioavailability result in series [1] (single dose, mice) was “excellent oral bioavailability”. The “kinases found to bind (of 468)” value on 468 kinases (SSI-4 at 10 nM) is recorded as “none”; at 468 kinases (SSI-4 at 100 nM, kinase bound is CDKL2), 1. In addition, the blood chemistries entry in series [2] (day 8) is on record as “in normal range”. The toxicity result in [2] (male or female rats, daily oral for seven days) was “Little to no toxicity”. In addition, the weight loss in [2] (males, 300 mg/kg) is 6%. Moreover, the “proliferation response in HCC cells silenced for cMyc with shRNA” value in the series with HCC cell lines (1 uM SSI-4, c-Myc 1657 shRNA) is “blunted response”. The growth inhibition entry in series [3] is reported as “not growth inhibited”. In [4], the “levels of unsaturated fatty acids” value is “decreased”. For the same molecule, the “colony formation in soft agar” value in [5] was “decreased colony formation”. In series [6], the “ER stress (BIP)” value was “inducing”. Further, the “Wnt regulated genes (cMyc, survivin and cyclin D1) protein” value in series [6] is “down-regulated”. In series [6], the “apoptosis (cleaved PARP)” value is given as “inducing apoptosis”. In addition, the “antitumor response (tumor volume)” value in the series with PAX148 HCC PDTX is listed as “highly sensitive”; with LIV58 HCC PDTX (daily SSI-4 20-50 mg/kg oral, low LDHA model), approximately 30%; in the series on CX-003 CCA PDTX it was “no response”. Further, the “BIP, biomarker of ER stress (IHC)” value in the series on LIV58 HCC PDTX (LIV58 tumors) was “upregulated”. In addition, the “Ki-67, survivin and cMyc (IHC)” value with LIV58 HCC PDTX (LIV58 tumors) is reported as “attenuated”. The “in vivo tumor response over time” value in the series with HLE HCC mouse model was “escape over time on therapy”. Also, the cell growth entry in series [7] and in [8] was “growth inhibition” each time.

For orientation: IC50 means the point on the concentration scale where inhibition reaches its midpoint. Higher therefore signals a need for much substance. In general, half-life refers to how long it takes for the measured level to halve. A low value points to fast loss.
